# Measured values from publication PMC8481502, “Bovine NK-lysin peptides exert potent antimicrobial activity against multidrug-resistant Salmonella outbreak isolates” (Scientific Reports, 2021).
# Peptide text beside a SMILES is read from it.
# How the values were obtained:
# [1] = system: Salmonella enterica serotype Typhimurium LPS; growth of isolate SX238; assay: NK2A-LPS binding by growth curve assay after LPS preincubation; type: cell-based
# Procedure: The binding of NK2A to Salmonella LPS was studied by growth curve assay and TEM. Five micromolar NK2A (~ 2.2 µg/well) was preincubated with different amounts of Salmonella enterica serotype Typhimurium LPS (Sigma; LPS = 0, 0.5, 1.1, 2.2, 4.4, 8.8 µg/well, final volume of LPS and NK2A = 20 µL) at 37 °C in a honeycomb plate with continuous shaking for 30 min. Overnight Salmonella (isolate SX238) culture was diluted to ~ 1 × 10^6 CFU/mL and 100 µL was transferred into wells containing NK2A-LPS and further incubated at 37 °C with continuous shaking for 24 h. The optical density (OD600) data were analyzed, and growth curve graphs were generated.
# [2] = system: MDR Salmonella enterica serovar Heidelberg (SB395); assay: Growth curve assay (automated reader, OD600) with isolate SB395; type: cell-based; conditions: LB broth, 10^5 CFU/well, OD600 over 24 h
# [3] = system: Salmonella enterica serovar Typhimurium isolate UK-1 (SB377, non-MDR); assay: Growth curve assay (automated reader, OD600) with isolate SB377; type: cell-based; conditions: LB broth, ~1 × 10^5 CFU/well, 37 °C, OD600 every hour for 24 h; tested 2-20 µM
# Procedure: (§1) Overnight cultures of a MDR Salmonella outbreak isolate (SX238) and one non-MDR Salmonella isolate (SB377) were diluted 1:1000 in LB broth to obtain approximately 1 × 10^6 colony forming units per milliliter (CFU/mL). One hundred microliters of each diluted culture were transferred into honeycomb® 100-well plates (~ 1 × 10^5 CFU/well) (Growth Curves USA, Piscataway, NJ). Bovine NK-lysin peptides (NK1, NK2A, NK2B, and NK2C) were added at the final peptide concentrations of 20, 10, 5, 3.5, 2 µM in PBS (total volume = 20 µL) with a final bacterial-peptide volume of 120 µL/well. The plates were covered with lids and placed in an automated growth curve reader (Bioscreen C; Growth Curves USA, Piscataway, NJ) which was programmed for continuous shaking at 37 °C, and optical density readings at 600 nm (OD600) were recorded every hour for 24 h. […] The optical density data were analyzed, and growth curve graphs for each isolate were generated using MS Excel. […] Twenty-four-hour growth curve assays for Salmonella isolate SX238 were repeated at different bacterial CFU (~ 1 × 10^5, 1 × 10^6, 1 × 10^7, and 1 × 10^8 CFU/mL) with NK2A (5 µM and 10 µM). Sc-NK2A was included as a control for the assay.
# [4] = system: MDR Salmonella enterica serovar Typhimurium DT193 strain 1434 (SX231); assay: Growth curve assay (automated reader, OD600) with isolate SX231; type: cell-based; conditions: LB broth, 10^5 CFU/well, OD600 over 24 h
# [5] = system: Salmonella SX238 outer- and inner-membranes; assay: Transmission electron microscopy of peptide-treated bacteria; type: cell-based, Salmonella enterica serovar I 4,[5],12:i:-; conditions: 20 µM peptide, 1 h at 37 °C, ~1 × 10^7 CFU/well in PBS
# Procedure: Morphological changes of bacteria following incubation with NK2A and Sc-NK2A peptides were studied by TEM. An overnight culture of Salmonella (isolate SX238) was centrifuged and resuspended in PBS. One hundred microliters of bacterial suspension were placed in a Honeycomb plate (~ 1 × 10^7 CFU/well) and NK2A, Sc-NK2A (20 µM), and PBS were added and incubated at 37 °C with continuous shaking for 1 h. The bacterial suspensions were mixed with an equal volume of 3% glutaraldehyde in 0.1 M cacodylate buffer (pH 7.4) and processed for TEM as described before. Sections were examined with a FEI Tecnai G2 Biotwin (FEI Co., Hillboro, OR) TEM and images were taken with Advanced Microscopy Technologies (AMT Inc., Danvers, […]) imaging camera.
# Swiss-Webster mice = assay: Mouse study of in vivo cytotoxic effects; conditions: single intraperitoneal dose 100 µg (~ 4 mg/kg) in PBS, female Swiss-Webster mice, 5 per cage, 2-week observation
# Procedure: To determine whether NK-lysin peptides show in vivo cytotoxic effects, a mouse study was conducted. Briefly, thirty 5–6 weeks old female Swiss-Webster mice (Envigo, Indianapolis, IN) were housed in groups in six individual cages (5 mice per cage) in ABSL2 facilities with ad libitum access to food and water in a 12-h light:dark cycle. After 1 week of acclimation, mice were intraperitoneally injected with a single dose of 100 µg of NK-lysin peptides (NK1, NK2A, NK2B, NK2C, or Sc-NK2A, ~ 4 mg/kg of body weight) in PBS (1 mL). Mice injected with PBS (1 mL) served as a negative control for the study. Mice were daily observed for any signs of toxicity and were euthanized 2 weeks post peptide administration.
# [6] = system: MDR Salmonella enterica serovar I 4,[5],12:i:- strain USDA15WA-1 (SX238); assay: Growth curve assay (automated reader, OD600) with isolate SX238; type: cell-based
# Procedure: as §1
# Salmonella SX238 = assay: LIVE/DEAD BacLight staining, confocal laser scanning microscopy; type: cell-based, Salmonella enterica serovar I 4,[5],12:i:-; conditions: 5 µM peptide
# Procedure: The viabilities of bacteria following incubation with NK2A and Sc-NK2A were determined using culture-independent (function of the membrane integrity of the bacteria) staining technique by using LIVE/DEAD™ BacLight™ bacterial viability kit (for microscopy) as described previously. Bacteria in each treatment was visualized using a Nikon A1R + laser scanning confocal microscope (Nikon Instruments, Melville, NY) as described previously. Images were obtained using plan Apo 60 × objective lens (oil) at numerical aperture 1.4. Final figures were prepared using Adobe Photoshop Elements 11.
# [7] = system: MDR Salmonella outbreak isolate SX238 cytoplasmic membrane; assay: Propidium iodide (PI) uptake assay; type: cell-based, Salmonella enterica serovar I 4,[5],12:i:-; conditions: 5 µM peptide, 30 min, ~1 × 10^7 CFU/well in PBS, 3 µM PI
# Procedure: The kinetics of NK2A-induced damage to Salmonella cell membranes were evaluated using PI uptake assay as described previously. Briefly, an overnight culture of MDR Salmonella outbreak isolate SX238 was centrifuged, washed with PBS, and resuspended in PBS. Ninety microliters of bacterial suspension was transferred to a 96-well opaque plate (~ 1 × 10^7 CFU/well), mixed with 10 µL of PI (final concentration = 3 µM) and incubated at 37 °C for 5 min. PBS, polymyxin B (2, 4, 25, 50 and 100 µg/mL), NK2A or Sc-NK2A (both at 2 and 5 µM) were added and PI fluorescent intensities in each well was continuously measured (15 s intervals, flex mode) using a FlexStation 3 multi-mode (fluorescent) microplate reader (Molecular Devices LLC., San Jose, CA) for up to 6 h. The excitation and emission wavelengths for PI was set up at 530 nm and 620 nm, respectively.
# [8] = system: Salmonella isolates (MDR and non-MDR); assay: Growth curve assay, statements over all Salmonella isolates; type: cell-based
# Procedure: as §1
smiles,measurement,setting,value
CC[C@H](C)[C@H](NC(=O)[C@H](CO)NC(=O)[C@H](CCCCN)NC(=O)[C@H](CS)NC(=O)[C@H](CC(C)C)NC(=O)CNC(=O)[C@H](CCCCN)NC(=O)[C@H](CC(C)C)NC(=O)[C@H](CC(C)C)NC(=O)[C@H](CCCNC(=N)N)NC(=O)[C@H](CCSC)NC(=O)[C@H](CCCCN)NC(=O)[C@H](CO)NC(=O)[C@H](CS)NC(=O)[C@H](CCSC)NC(=O)[C@H](CCCCN)NC(=O)[C@H](CO)NC(=O)[C@H](C)NC(=O)[C@@H](NC(=O)[C@H](CCC(=O)O)NC(=O)[C@@H](NC(=O)[C@@H](NC(=O)[C@@H](N)[C@@H](C)O)C(C)C)[C@@H](C)CC)C(C)C)C(=O)N[C@H](C(=O)N[C@@H](CCCCN)C(=O)N[C@@H](CCCNC(=N)N)C(=O)N[C@@H](Cc1ccccc1)C(=O)N[C@@H](CC(C)C)C(=O)N[C@@H](CCCNC(=N)N)C(=O)N[C@@H](CCCNC(=N)N)C(=O)O)[C@@H](C)O [NK2A] (H-TVIEVASKMCSKMRLLKGLCKSITKRFLRR-OH; N-terminus and C-terminus assumed),delayed bacterial growth recovery after LPS preincubation,[1]; 5 µM (2.2 µg) NK2A preincubated 30 min with 1.1 µg and 2.2 µg LPS,5 to 10 h
same,effect of LPS preincubation on antimicrobial activity,[1]; 5 µM (2.2 µg) NK2A preincubated 30 min with 4.4 µg and 8.8 µg LPS,completely inhibited the antimicrobial activity of NK2A
same,peptide concentration at which growth of SB395 was inhibited,[2],≥ 5 µM
same,peptide concentration at which growth of SB377 was completely inhibited,[3],≥ 5 µM
same,peptide concentration at which growth of SX231 was inhibited,[4],≥ 5 µM
same,ultrastructural changes to bacterial membranes,[5],extensively damaged outer- and inner-membranes and cytosolic content leakage
same,signs of toxicity or death,Swiss-Webster mice,did not show signs of toxicity or death
same,duration of growth inhibition at 2 µM,"[6]; 2 µM peptide, LB broth (Fig. 1a)",up to 8 h
same,growth inhibition of SX238 at different bacterial CFU,"[6]; 10 µM peptide, 10^5–7 CFU/mL (10^4–6 CFU/well), 24 h growth period",completely inhibited growth
same,duration of partial growth inhibition at high inoculum,"[6]; 10 µM peptide, 10^8 CFU/mL (10^7 CFU/well)",up to 9 h
same,live/dead staining result (SYTO 9 / PI),Salmonella SX238,many dead (red) Salmonella SX238 were detected
same,PI uptake signal,[7],rapid PI uptake was observed
same,concentrations able to inhibit growth of Salmonella during 24 h,"[8]; 24 h incubation in LB broth, MDR and non-MDR isolates",3.5 to 5 µM
same,final concentration to which three of the four isolates were sensitive,"[8]; SX238, SX231, SB395, SB377 at 10^5 CFU/well, the three isolates are not named",3.5 µM
